Laboratory results reported in PubChem BioAssay AID192 (DTP/NCI, 2004).
Where “and” joins values, the source holds several entries; their conditions need not be identical. Equal entries are not always repeated. Inconclusive results and toxic doses are left out.

Test system: BDF1 mice, B16 melanoma ip, median survival T/C
Test: NCI In Vivo Anticancer Drug Screen. Data for tumor model B16 Melanoma (intraperitoneal) in B6D2F1 (BDF1) mice
Conditions: endpoint: median survival time, higher = longer survival
Summary of the method: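 Each result divides a survival or tumor-size measurement in the compound-treated group by the same measurement in the vehicle group.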

[1] = dose: 50.0 mg/kg/injection, schedule: Q01DX009 (ip), vehicle: saline with Tween-80
[2] = dose: 25.0 mg/kg/injection, schedule: Q01DX009 (ip), vehicle: saline with Tween-80
[3] = dose: 100.0 mg/kg/injection, schedule: Q01DX009 (ip), vehicle: saline with Tween-80
[4] = dose: 2.5 mg/kg/injection, schedule: Q01DX009 (ip), vehicle: saline
[5] = dose: 5.0 mg/kg/injection, schedule: Q01DX009 (ip), vehicle: saline
[6] = dose: 100.0 mg/kg/injection, schedule: Q01DX009 (ip), vehicle: Klucel (hydroxypropylcellulose) (HPC)
[7] = dose: 200.0 mg/kg/injection, schedule: Q01DX009 (ip), vehicle: Klucel (hydroxypropylcellulose) (HPC)
[8] = dose: 25.0 mg/kg/injection, schedule: Q01DX009 (ip), vehicle: saline
[9] = dose: 50.0 mg/kg/injection, schedule: Q01DX009 (ip), vehicle: saline
[10] = dose: 12.5 mg/kg/injection, schedule: Q01DX009 (ip), vehicle: Klucel (hydroxypropylcellulose) (HPC)
[11] = dose: 25.0 mg/kg/injection, schedule: Q01DX009 (ip), vehicle: Klucel (hydroxypropylcellulose) (HPC)
[12] = dose: 50.0 mg/kg/injection, schedule: Q01DX009 (ip), vehicle: Klucel (hydroxypropylcellulose) (HPC)

What does the source list for `CC[C@@]1(O)C[C@H](OC2CC(N(C)C)C(OC3CC(O)C(OC4CCC(=O)C(C)O4)C(C)O3)C(C)O2)c2c(cc3c(c2O)C(=O)c2c(O)cccc2C3=O)[C@H]1C(=O)OC` (some centres undefined)?
T/C (dose: 0.75 mg/kg/injection, schedule: Q01DX001 (ip), vehicle: water): 100 % of control and 106 % of control and 112 % of control; T/C (dose: 0.75 mg/kg/injection, schedule: Q01DX009 (ip), vehicle: Klucel (hydroxypropylcellulose) (HPC)): 123 % of control; T/C (dose: 1.5 mg/kg/injection, schedule: Q01DX001 (ip), vehicle: water): 105 % of control and 112 % of control and 120 % of control; T/C (dose: 1.56 mg/kg/injection, schedule: Q01DX001 (ip), vehicle: water): 103 % of control; T/C (dose: 2.16 mg/kg/injection, schedule: Q01DX001 (ip), vehicle: water): 95 % of control and 97 % of control; T/C (dose: 3.0 mg/kg/injection, schedule: Q01DX001 (ip), vehicle: water): 110 % of control and 124 % of control; T/C (dose: 3.0 mg/kg/injection, schedule: Q01DX009 (ip), vehicle: saline): 160 % of control; T/C (dose: 3.13 mg/kg/injection, schedule: Q01DX001 (ip), vehicle: water): 110 % of control; T/C (dose: 3.6 mg/kg/injection, schedule: Q01DX001 (ip), vehicle: water): 91 % of control and 101 % of control; T/C (dose: 6.25 mg/kg/injection, schedule: Q01DX001 (ip), vehicle: water): 124 % of control; T/C (dose: 8.0 mg/kg/injection, schedule: Q01DX001 (ip), vehicle: water): 106 % of control and 120 % of control; T/C (dose: 10.0 mg/kg/injection, schedule: Q01DX001 (ip), vehicle: water): 100 % of control; T/C (dose: 12.0 mg/kg/injection, schedule: Q01DX001 (ip), vehicle: water): 110 % of control and 124 % of control; T/C (dose: 12.5 mg/kg/injection, schedule: Q01DX001 (ip), vehicle: water): 114 % of control and 121 % of control; T/C (dose: 25.0 mg/kg/injection, schedule: Q01DX001 (ip), vehicle: water): 98 % of control

Which results are given for `CC12CCC(O)CC1CCC1C2CCC2(C)C(c3ccc(=O)oc3)C(O)C3OC132` (centres undefined)?
T/C (dose: 0.94 mg/kg/injection, schedule: Q01DX009 (ip), vehicle: Klucel (hydroxypropylcellulose) (HPC)): 103 % of control; T/C (dose: 1.87 mg/kg/injection, schedule: Q01DX009 (ip), vehicle: Klucel (hydroxypropylcellulose) (HPC)): 98 % of control; T/C (dose: 3.5 mg/kg/injection, schedule: Q01DX009 (ip), vehicle: Klucel (hydroxypropylcellulose) (HPC)): 94 % of control

How did the T/C (dose: 1.56 mg/kg/injection, schedule: Q01DX009 (ip), vehicle: saline with Tween-80) turn out when `Cc1nc2c(O)ccc(O)c2nc1C` was run?
Its T/C is 106 % of control.

And the T/C (dose: 3.13 mg/kg/injection, schedule: Q01DX009 (ip), vehicle: saline with Tween-80)?
The T/C was 102 % of control.

And the T/C (dose: 6.25 mg/kg/injection, schedule: Q01DX009 (ip), vehicle: saline with Tween-80)?
Its T/C is 100 % of control.

What about the T/C [1] of the same compound?
Its T/C is 89 % of control.

For `Oc1c(CN2CCCC2)cc(Nc2cc(/C=C/c3ccc(Cl)cc3)nc(/C=C\c3ccc(Cl)cc3)n2)cc1CN1CCCC1`, which T/C (dose: 3.0 mg/kg/injection, schedule: Q04DX003 (ip), vehicle: Klucel (hydroxypropylcellulose) (HPC)) is on record?
The T/C was 105 % of control.

What about the T/C (dose: 6.0 mg/kg/injection, schedule: Q04DX003 (ip), vehicle: Klucel (hydroxypropylcellulose) (HPC)) of the same compound?
The T/C was 97 % of control.

What about the T/C (dose: 12.0 mg/kg/injection, schedule: Q04DX003 (ip), vehicle: Klucel (hydroxypropylcellulose) (HPC)) of the same compound?
Its T/C is 89 % of control.

With `O=C1c2cccnc2C(=O)c2c(O)ccc(O)c21` as the compound, how does the T/C [2] read?
The T/C was 92 % of control.

What about the T/C [1] of the same compound?
Its T/C is 103 % of control.

What about the T/C [3] of the same compound?
The T/C was 112 % of control.

What about the T/C (dose: 200.0 mg/kg/injection, schedule: Q01DX009 (ip), vehicle: saline with Tween-80) of the same compound?
The T/C was 89 % of control.

For `NC(CO)C(O)c1ccc([N+](=O)[O-])cc1` (centres undefined), which T/C (dose: 100.0 mg/kg/injection, schedule: Q04DX003 (ip), vehicle: Klucel (hydroxypropylcellulose) (HPC)) is on record?
Its T/C is 97 % of control.

What about the T/C (dose: 200.0 mg/kg/injection, schedule: Q04DX003 (ip), vehicle: Klucel (hydroxypropylcellulose) (HPC)) of the same compound?
The T/C was 95 % of control.

And the T/C (dose: 400.0 mg/kg/injection, schedule: Q04DX003 (ip), vehicle: Klucel (hydroxypropylcellulose) (HPC))?
The T/C was 86 % of control.

How did the T/C (dose: 1.0 mg/kg/injection, schedule: Q01DX009 (ip), vehicle: saline + alcohol) turn out when `C=C1CCN(c2cccc(Cl)c2)C1=O` was run?
The T/C was 107 % of control.

What about the T/C (dose: 2.0 mg/kg/injection, schedule: Q01DX009 (ip), vehicle: saline + alcohol) of the same compound?
Its T/C is 117 % of control.

And the T/C (dose: 4.0 mg/kg/injection, schedule: Q01DX009 (ip), vehicle: saline + alcohol)?
Its T/C is 101 % of control and 115 % of control.

What about the T/C (dose: 8.0 mg/kg/injection, schedule: Q01DX009 (ip), vehicle: saline + alcohol) of the same compound?
Its T/C is 101 % of control.

And the T/C (dose: 16.0 mg/kg/injection, schedule: Q01DX009 (ip), vehicle: saline + alcohol)?
Its T/C is 95 % of control.

And the T/C (dose: 32.0 mg/kg/injection, schedule: Q01DX009 (ip), vehicle: saline + alcohol)?
The T/C was 96 % of control.

What about the T/C (dose: 64.0 mg/kg/injection, schedule: Q01DX009 (ip), vehicle: saline + alcohol) of the same compound?
Its T/C is 100 % of control.

Which T/C [4] does the source give for `[Cu+2].[NH-]CC(=O)O.[NH-]CC(=O)O` here?
Its T/C is 97 % of control.

And the T/C (dose: 2.5 mg/kg/injection, schedule: Q04DX003 (ip), vehicle: saline with Tween-80)?
The T/C was 121 % of control.

And the T/C [5]?
Its T/C is 95 % of control and 102 % of control.

And the T/C (dose: 5.0 mg/kg/injection, schedule: Q04DX003 (ip), vehicle: saline with Tween-80)?
Its T/C is 115 % of control.

And the T/C (dose: 10.0 mg/kg/injection, schedule: Q01DX009 (ip), vehicle: saline)?
Its T/C is 95 % of control and 100 % of control.

And the T/C (dose: 10.0 mg/kg/injection, schedule: Q04DX003 (ip), vehicle: saline with Tween-80)?
The T/C was 100 % of control.

Which results are given for `Cc1cccc(C)c1N1C(=O)CCC1=O`?
T/C [6]: 101 % of control; T/C [7]: 95 % of control; T/C (dose: 400.0 mg/kg/injection, schedule: Q01DX009 (ip), vehicle: Klucel (hydroxypropylcellulose) (HPC)): 102 % of control

Which T/C [2] does the source give for `C/C(=C\c1ccccc1)[N+](=O)[O-]` here?
Its T/C is 111 % of control.

And the T/C (dose: 25.0 mg/kg/injection, schedule: Q04DX003 (ip), vehicle: saline with Tween-80)?
The T/C was 110 % of control.

And the T/C [1]?
The T/C was 105 % of control.

And the T/C (dose: 50.0 mg/kg/injection, schedule: Q04DX003 (ip), vehicle: saline with Tween-80)?
The T/C was 110 % of control.

How did the T/C [2] turn out when `Clc1ccc(CN2COc3c(ccc4cccnc34)C2)cc1Cl` was run?
The T/C was 106 % of control.

What about the T/C [1] of the same compound?
The T/C was 108 % of control.

And the T/C [3]?
The T/C was 107 % of control.

`CCN(CC)Cc1ccccn1` was tested. Which T/C [8] did it give?
Its T/C is 100 % of control.

And the T/C [9]?
The T/C was 97 % of control.

What about the T/C (dose: 100.0 mg/kg/injection, schedule: Q01DX009 (ip), vehicle: saline) of the same compound?
The T/C was 100 % of control.

For `NC1=CC(=O)c2ccccc2C1=O`, which T/C [10] is on record?
Its T/C is 96 % of control.

What about the T/C [11] of the same compound?
The T/C was 99 % of control.

What about the T/C [12] of the same compound?
The T/C was 101 % of control.

Which T/C (dose: 12.5 mg/kg/injection, schedule: Q01DX009 (ip), vehicle: other) does the source give for `COc1ccc2cc1Oc1ccc(cc1)C[C@H]1c3cc(c(OC)cc3CCN1C)Oc1c(OC)c(OC)cc3c1[C@H](C2)N(C)CC3` here?
Its T/C is 109 % of control.

What about the T/C (dose: 12.5 mg/kg/injection, schedule: Q01DX009 (ip), vehicle: saline with Tween-80) of the same compound?
Its T/C is 106 % of control and 108 % of control.

What about the T/C (dose: 12.5 mg/kg/injection, schedule: Q01DX009 (ip), vehicle: saline) of the same compound?
The T/C was 97 % of control.

What about the T/C (dose: 12.5 mg/kg/injection, schedule: Q04DX003 (ip), vehicle: saline) of the same compound?
The T/C was 94 % of control.

What about the T/C (dose: 25.0 mg/kg/injection, schedule: Q01DX009 (ip), vehicle: other) of the same compound?
The T/C was 106 % of control.

And the T/C [2]?
The T/C was 106 % of control and 115 % of control.

And the T/C [8]?
Its T/C is 100 % of control.

And the T/C (dose: 25.0 mg/kg/injection, schedule: Q04DX003 (ip), vehicle: saline)?
Its T/C is 108 % of control.

And the T/C (dose: 50.0 mg/kg/injection, schedule: Q01DX009 (ip), vehicle: other)?
Its T/C is 102 % of control.

What about the T/C [1] of the same compound?
Its T/C is 94 % of control and 113 % of control.

And the T/C [9]?
Its T/C is 105 % of control.

And the T/C (dose: 50.0 mg/kg/injection, schedule: Q04DX003 (ip), vehicle: saline)?
The T/C was 97 % of control.

And the T/C [3]?
Its T/C is 89 % of control and 101 % of control and 109 % of control.

What about the T/C (dose: 100.0 mg/kg/injection, schedule: Q04DX003 (ip), vehicle: saline) of the same compound?
The T/C was 100 % of control.

With `COc1ccc(/C=C2\C(=O)OC(=O)\C2=C\c2ccc(OC)c(OC)c2)cc1OC` as the compound, how does the T/C [10] read?
The T/C was 98 % of control.

And the T/C [11]?
The T/C was 90 % of control.

`O=C1CCC2(CCC(=O)c3ccccc32)C(=O)N1` (centres undefined) was tested. Which T/C [12] did it give?
Its T/C is 119 % of control.

And the T/C [6]?
The T/C was 114 % of control.

And the T/C [7]?
The T/C was 116 % of control.

With `CCN(C)c1cc2c3c(c1)CCCN3CCC2` as the compound, how does the T/C (dose: 0.63 mg/kg/injection, schedule: Q01DX009 (ip), vehicle: saline) read?
Its T/C is 111 % of control.

And the T/C (dose: 1.25 mg/kg/injection, schedule: Q01DX009 (ip), vehicle: saline)?
The T/C was 95 % of control.

What about the T/C [4] of the same compound?
Its T/C is 101 % of control.

And the T/C [5]?
The T/C was 93 % of control.
